Assay results from patent publication US20100137449A1, “SUBSTITUTED 1,3-CYCLOPENTADIONE MULTI-TARGET PROTEIN KINASE MODULATORS OF CANCER, ANGIOGENESIS AND THE INFLAMMATORY PATHWAYS ASSOCIATED THEREWITH” (METAPROTEOMICS, LLC, priority 2007, published 2010).

Assays:
Assay in all cases: KinaseProfiler Assay
Abl(T315I)(h) = Abl(T315I)(h) (Homo sapiens, UniProt P00519, T315I)
EphB3(h) = molecular target: T1, EphB3(h) (Homo sapiens, UniProt P54753)
T1 sequence (P54753 34-998): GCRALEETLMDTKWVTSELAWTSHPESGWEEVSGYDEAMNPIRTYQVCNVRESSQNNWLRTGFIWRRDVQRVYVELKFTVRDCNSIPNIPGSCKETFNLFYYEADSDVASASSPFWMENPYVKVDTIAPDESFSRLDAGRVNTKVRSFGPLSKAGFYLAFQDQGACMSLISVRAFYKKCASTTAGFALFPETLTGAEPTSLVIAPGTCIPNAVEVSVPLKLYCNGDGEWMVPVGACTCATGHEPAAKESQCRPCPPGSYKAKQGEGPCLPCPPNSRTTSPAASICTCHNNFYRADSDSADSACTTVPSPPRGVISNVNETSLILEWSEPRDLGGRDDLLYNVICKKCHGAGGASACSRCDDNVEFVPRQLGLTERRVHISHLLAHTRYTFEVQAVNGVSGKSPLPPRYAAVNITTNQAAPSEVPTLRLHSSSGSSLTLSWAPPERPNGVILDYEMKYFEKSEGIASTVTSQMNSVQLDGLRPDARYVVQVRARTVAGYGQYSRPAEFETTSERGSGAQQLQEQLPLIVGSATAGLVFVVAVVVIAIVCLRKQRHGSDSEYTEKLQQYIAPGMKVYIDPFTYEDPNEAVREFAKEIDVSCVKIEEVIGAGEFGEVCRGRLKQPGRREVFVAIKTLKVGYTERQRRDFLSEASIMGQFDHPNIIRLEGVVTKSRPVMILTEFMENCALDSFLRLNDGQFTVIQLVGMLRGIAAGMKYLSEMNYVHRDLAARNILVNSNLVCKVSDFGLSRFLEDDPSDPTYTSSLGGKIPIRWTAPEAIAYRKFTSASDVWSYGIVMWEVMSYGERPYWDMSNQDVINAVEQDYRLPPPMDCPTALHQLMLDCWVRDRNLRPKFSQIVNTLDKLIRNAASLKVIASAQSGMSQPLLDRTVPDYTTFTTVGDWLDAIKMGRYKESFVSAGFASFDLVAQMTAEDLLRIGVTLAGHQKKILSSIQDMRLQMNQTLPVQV

IKKα(h) = molecular target: T2, IKKα(h) (Homo sapiens, UniProt O15111)
T2 sequence (O15111 1-745): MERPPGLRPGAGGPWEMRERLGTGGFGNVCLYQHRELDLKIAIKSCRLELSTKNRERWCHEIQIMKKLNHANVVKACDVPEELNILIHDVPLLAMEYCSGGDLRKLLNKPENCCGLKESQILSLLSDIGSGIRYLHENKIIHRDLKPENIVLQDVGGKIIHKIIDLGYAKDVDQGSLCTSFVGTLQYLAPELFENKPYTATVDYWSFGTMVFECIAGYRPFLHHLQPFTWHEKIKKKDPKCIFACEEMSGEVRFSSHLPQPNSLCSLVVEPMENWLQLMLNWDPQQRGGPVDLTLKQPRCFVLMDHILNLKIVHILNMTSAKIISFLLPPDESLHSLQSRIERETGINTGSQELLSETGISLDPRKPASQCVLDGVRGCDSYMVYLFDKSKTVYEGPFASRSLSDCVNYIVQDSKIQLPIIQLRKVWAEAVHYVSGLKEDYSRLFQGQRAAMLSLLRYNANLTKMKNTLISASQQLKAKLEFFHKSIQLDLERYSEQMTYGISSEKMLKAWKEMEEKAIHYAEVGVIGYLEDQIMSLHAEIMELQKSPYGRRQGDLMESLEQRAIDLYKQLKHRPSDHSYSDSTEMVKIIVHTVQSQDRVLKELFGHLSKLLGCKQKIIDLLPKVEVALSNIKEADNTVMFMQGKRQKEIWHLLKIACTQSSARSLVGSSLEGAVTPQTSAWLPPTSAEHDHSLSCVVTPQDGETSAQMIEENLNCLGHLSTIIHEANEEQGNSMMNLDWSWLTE

PAK6(h) = PAK6(h) (Homo sapiens, UniProt Q9NQU5)
Chain of PAK6(h) (Q9NQU5 whole entry): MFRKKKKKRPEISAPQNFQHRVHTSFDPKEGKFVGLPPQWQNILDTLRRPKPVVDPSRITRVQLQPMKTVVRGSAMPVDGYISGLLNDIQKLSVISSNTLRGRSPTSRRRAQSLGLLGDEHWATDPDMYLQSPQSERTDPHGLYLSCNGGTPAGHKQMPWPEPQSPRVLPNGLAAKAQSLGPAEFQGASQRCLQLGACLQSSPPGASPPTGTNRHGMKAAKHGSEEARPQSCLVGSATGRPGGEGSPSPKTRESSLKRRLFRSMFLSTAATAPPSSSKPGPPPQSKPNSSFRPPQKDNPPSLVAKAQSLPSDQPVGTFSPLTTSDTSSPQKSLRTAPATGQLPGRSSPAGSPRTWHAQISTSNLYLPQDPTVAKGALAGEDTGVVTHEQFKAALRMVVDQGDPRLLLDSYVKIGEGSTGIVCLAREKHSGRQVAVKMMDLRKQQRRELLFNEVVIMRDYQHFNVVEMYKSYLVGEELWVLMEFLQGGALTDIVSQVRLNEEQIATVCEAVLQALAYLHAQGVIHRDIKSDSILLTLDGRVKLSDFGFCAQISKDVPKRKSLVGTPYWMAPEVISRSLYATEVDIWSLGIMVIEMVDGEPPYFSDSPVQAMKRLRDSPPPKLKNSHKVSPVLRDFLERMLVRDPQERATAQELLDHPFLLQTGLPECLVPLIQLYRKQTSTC

Pim-3(h) = Pim-3(h) (Homo sapiens, UniProt Q86V86)
Ret(h) = Ret(h) (Homo sapiens, UniProt P07949)
Chain of Ret(h) (P07949 29-1114): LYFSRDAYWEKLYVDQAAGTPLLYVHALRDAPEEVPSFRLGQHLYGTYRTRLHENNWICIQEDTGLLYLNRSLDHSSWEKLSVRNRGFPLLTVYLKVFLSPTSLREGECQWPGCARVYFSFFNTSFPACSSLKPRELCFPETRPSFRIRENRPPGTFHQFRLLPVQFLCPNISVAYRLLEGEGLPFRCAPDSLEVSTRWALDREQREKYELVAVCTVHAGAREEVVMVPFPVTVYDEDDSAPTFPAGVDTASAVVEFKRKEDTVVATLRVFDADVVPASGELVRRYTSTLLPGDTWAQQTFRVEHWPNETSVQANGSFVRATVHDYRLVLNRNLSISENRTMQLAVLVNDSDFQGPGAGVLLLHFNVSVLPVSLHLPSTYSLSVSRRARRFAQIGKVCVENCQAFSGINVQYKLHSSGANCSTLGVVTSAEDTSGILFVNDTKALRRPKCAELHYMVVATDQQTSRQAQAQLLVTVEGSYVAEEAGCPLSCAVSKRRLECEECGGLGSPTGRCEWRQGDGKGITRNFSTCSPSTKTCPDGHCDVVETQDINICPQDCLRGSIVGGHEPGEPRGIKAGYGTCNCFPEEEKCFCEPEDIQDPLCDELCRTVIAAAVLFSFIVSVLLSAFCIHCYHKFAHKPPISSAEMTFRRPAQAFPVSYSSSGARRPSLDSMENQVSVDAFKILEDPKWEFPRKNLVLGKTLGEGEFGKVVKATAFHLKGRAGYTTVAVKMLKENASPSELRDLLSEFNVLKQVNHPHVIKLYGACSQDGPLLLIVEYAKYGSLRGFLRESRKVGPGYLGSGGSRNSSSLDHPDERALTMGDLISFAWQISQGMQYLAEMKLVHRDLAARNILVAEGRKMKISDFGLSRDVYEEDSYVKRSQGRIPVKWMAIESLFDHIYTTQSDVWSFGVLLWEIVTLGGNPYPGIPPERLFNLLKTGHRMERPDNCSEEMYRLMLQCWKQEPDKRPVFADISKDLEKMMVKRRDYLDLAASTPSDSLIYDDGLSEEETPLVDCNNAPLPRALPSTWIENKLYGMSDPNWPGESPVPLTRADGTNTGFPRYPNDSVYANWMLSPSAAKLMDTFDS

Q: Which results are given for `CC(C)CCC(=O)[C@]1(O)C(O)=C(C(=O)C(C)C)C(=O)[C@H]1CCC(C)C` [TH2, tetrahydroiso-cohumulone]?
A: kinase inhibition (Abl(T315I)(h); 1 μg/ml): 102% of control; kinase inhibition (Abl(T315I)(h); 5 μg/ml): 98% of control; kinase inhibition (Abl(T315I)(h); 25 μg/ml): 79% of control; kinase inhibition (Abl(T315I)(h); 50 μg/ml): 68% of control; kinase inhibition (Abl(T315I)(h); 100 μg/ml): 58% of control; kinase inhibition (EphB3(h); 1 μg/ml): 80% of control; kinase inhibition (EphB3(h); 5 μg/ml): 71% of control; kinase inhibition (EphB3(h); 25 μg/ml): 69% of control; kinase inhibition (EphB3(h); 50 μg/ml): 62% of control; kinase inhibition (EphB3(h); 100 μg/ml): 57% of control; kinase inhibition (IKKα(h); 1 μg/ml): 99% of control; kinase inhibition (IKKα(h); 5 μg/ml): 108% of control; kinase inhibition (IKKα(h); 25 μg/ml): 114% of control; kinase inhibition (IKKα(h); 50 μg/ml): 114% of control; kinase inhibition (IKKα(h); 100 μg/ml): 120% of control; kinase inhibition (PAK6(h); 1 μg/ml): 85% of control; kinase inhibition (PAK6(h); 5 μg/ml): 113% of control; kinase inhibition (PAK6(h); 25 μg/ml): 90% of control; kinase inhibition (PAK6(h); 50 μg/ml): 89% of control; kinase inhibition (PAK6(h); 100 μg/ml): 42% of control; kinase inhibition (Pim-3(h); 1 μg/ml): 104% of control; kinase inhibition (Pim-3(h); 5 μg/ml): 104% of control; kinase inhibition (Pim-3(h); 25 μg/ml): 72% of control; kinase inhibition (Pim-3(h); 50 μg/ml): 70% of control; kinase inhibition (Pim-3(h); 100 μg/ml): 64% of control; kinase inhibition (Ret(h); 1 μg/ml): 112% of control; kinase inhibition (Ret(h); 5 μg/ml): 115% of control; kinase inhibition (Ret(h); 25 μg/ml): 101% of control; kinase inhibition (Ret(h); 50 μg/ml): 100% of control; kinase inhibition (Ret(h); 100 μg/ml): 68% of control
